Test results as given in the CheMixHub viscosity set.

Assay: xn = mol fraction of the nth substance listed

CO + O
Details	viscosity [mPa·s]
293.15 K, 100 kPa, x1 = 0.2	1.801
293.15 K, 100 kPa, x1 = 0.3	1.845
293.15 K, 100 kPa, x1 = 0.4	1.764
293.15 K, 101 kPa, x1 = 0.055	1.262
293.15 K, 101 kPa, x1 = 0.129	1.651
293.15 K, 101 kPa, x1 = 0.232	1.836
293.15 K, 101 kPa, x1 = 0.487	1.555
293.15 K, 101 kPa, x1 = 0.541	1.418
293.15 K, 101 kPa, x1 = 0.625	1.23
293.15 K, 101 kPa, x1 = 0.642	1.186
293.15 K, 101 kPa, x1 = 0.903	0.745
293.15 K, 101.3 kPa, x1 = 0.05886	1.276
293.15 K, 101.3 kPa, x1 = 0.05892	1.276
293.15 K, 101.3 kPa, x1 = 0.1014	1.465
293.15 K, 101.3 kPa, x1 = 0.1021	1.453
293.15 K, 101.3 kPa, x1 = 0.1493	1.628
293.15 K, 101.3 kPa, x1 = 0.1972	1.742
293.15 K, 101.3 kPa, x2 = 0.0969	0.743
293.15 K, 101.3 kPa, x2 = 0.2006	0.916
293.15 K, 101.3 kPa, x2 = 0.3002	1.105
293.15 K, 101.3 kPa, x2 = 0.4001	1.314
293.15 K, 101.3 kPa, x2 = 0.5	1.501
293.15 K, 101.3 kPa, x2 = 0.7	1.837
293.15 K, 101.3 kPa, x2 = 0.85	1.705
293.15 K, 101.3 kPa, x2 = 0.9	1.528
293.15 K, 101.3 kPa, x2 = 0.95	1.278
298.15 K, 101 kPa, x1 = 0.0519	1.129
298.15 K, 101 kPa, x1 = 0.0845	1.264
298.15 K, 101 kPa, x1 = 0.125	1.385
298.15 K, 101 kPa, x1 = 0.217	1.576
298.15 K, 101 kPa, x1 = 0.274	1.59
298.15 K, 101 kPa, x1 = 0.465	1.35
298.15 K, 101 kPa, x1 = 0.702	1.03
298.15 K, 101 kPa, x2 = 0.9413	1.1
298.15 K, 101.3 kPa, x1 = 0.1021	1.3
298.15 K, 101.3 kPa, x1 = 0.1233	1.392
298.15 K, 101.3 kPa, x1 = 0.2727	1.595
298.15 K, 101.3 kPa, x1 = 0.3599	1.534
298.15 K, 101.3 kPa, x1 = 0.4576	1.401
298.15 K, 101.3 kPa, x1 = 0.5675	1.218
298.15 K, 101.3 kPa, x1 = 0.6922	1.005
298.15 K, 101.3 kPa, x1 = 0.835	0.782
298.15 K, 101.3 kPa, x1 = 0.9144	0.659
298.15 K, 101.33 kPa, x1 = 0.03958	1.055
298.15 K, 101.33 kPa, x1 = 0.05923	1.157
298.15 K, 101.33 kPa, x1 = 0.1332	1.403
298.15 K, 101.33 kPa, x1 = 0.2396	1.6
298.15 K, 101.33 kPa, x1 = 0.2551	1.575
298.15 K, 101.33 kPa, x1 = 0.2785	1.57
298.15 K, 101.33 kPa, x1 = 0.3255	1.57
298.15 K, 101.33 kPa, x1 = 0.3558	1.532
298.15 K, 101.33 kPa, x1 = 0.3863	1.49
298.15 K, 101.33 kPa, x1 = 0.4426	1.427
298.15 K, 101.33 kPa, x1 = 0.4685	1.37
298.15 K, 101.33 kPa, x1 = 0.5278	1.282
298.15 K, 101.33 kPa, x1 = 0.6055	1.167
298.15 K, 101.33 kPa, x1 = 0.6583	1.105
303.15 K, 101 kPa, x1 = 0.055	0.978
303.15 K, 101 kPa, x1 = 0.129	1.245
303.15 K, 101 kPa, x1 = 0.176	1.313
303.15 K, 101 kPa, x1 = 0.256	1.37
303.15 K, 101 kPa, x1 = 0.487	1.218
303.15 K, 101 kPa, x1 = 0.541	1.126
303.15 K, 101 kPa, x1 = 0.642	0.974
303.15 K, 101 kPa, x1 = 0.903	0.63
303.15 K, 101.3 kPa, x1 = 0.0588	1.015
303.15 K, 101.3 kPa, x1 = 0.1233	1.206
303.15 K, 101.3 kPa, x1 = 0.2727	1.381
303.15 K, 101.3 kPa, x1 = 0.4576	1.239
303.15 K, 101.3 kPa, x1 = 0.5675	1.085
303.15 K, 101.3 kPa, x1 = 0.6922	0.907
303.15 K, 101.3 kPa, x1 = 0.835	0.714
303.15 K, 101.3 kPa, x1 = 0.9144	0.612
303.15 K, 101.3 kPa, x2 = 0.0969	0.634
303.15 K, 101.3 kPa, x2 = 0.1	0.618
303.15 K, 101.3 kPa, x2 = 0.2006	0.768
303.15 K, 101.3 kPa, x2 = 0.208	0.755
303.15 K, 101.3 kPa, x2 = 0.3002	0.906
303.15 K, 101.3 kPa, x2 = 0.3041	0.878
303.15 K, 101.3 kPa, x2 = 0.4001	1.062
303.15 K, 101.3 kPa, x2 = 0.5	1.177
303.15 K, 101.3 kPa, x2 = 0.5599	1.263
303.15 K, 101.3 kPa, x2 = 0.6148	1.306
303.15 K, 101.3 kPa, x2 = 0.7	1.39
303.15 K, 101.3 kPa, x2 = 0.7982	1.308
303.15 K, 101.3 kPa, x2 = 0.8	1.361
303.15 K, 101.3 kPa, x2 = 0.85	1.284
303.15 K, 101.3 kPa, x2 = 0.9043	1.108
303.15 K, 101.3 kPa, x2 = 0.95	0.999
303.15 K, 101.33 kPa, x2 = 0.1232	0.625
303.15 K, 101.33 kPa, x2 = 0.1599	0.679
303.15 K, 101.33 kPa, x2 = 0.2168	0.765
303.15 K, 101.33 kPa, x2 = 0.2992	0.874
303.15 K, 101.33 kPa, x2 = 0.3639	0.972
303.15 K, 101.33 kPa, x2 = 0.3948	1.021
303.15 K, 101.33 kPa, x2 = 0.4567	1.129
303.15 K, 101.33 kPa, x2 = 0.5837	1.31
303.15 K, 101.33 kPa, x2 = 0.8272	1.319
303.15 K, 101.33 kPa, x2 = 0.8782	1.213
303.15 K, 101.33 kPa, x2 = 0.886	1.185
303.15 K, 101.33 kPa, x2 = 0.9125	1.11
308.15 K, 101 kPa, x1 = 0.125	1.07
308.15 K, 101 kPa, x1 = 0.274	1.22
308.15 K, 101 kPa, x1 = 0.465	1.08
308.15 K, 101 kPa, x1 = 0.702	0.834
308.15 K, 101 kPa, x2 = 0.9413	0.9361
308.15 K, 101.3 kPa, x1 = 0.0588	0.894
308.15 K, 101.3 kPa, x1 = 0.1233	1.062
308.15 K, 101.3 kPa, x1 = 0.1943	1.172
308.15 K, 101.3 kPa, x1 = 0.2727	1.213
308.15 K, 101.3 kPa, x1 = 0.3599	1.18
313.15 K, 101 kPa, x1 = 0.055	0.78
313.15 K, 101 kPa, x1 = 0.129	0.974
313.15 K, 101 kPa, x1 = 0.176	1.021
313.15 K, 101 kPa, x1 = 0.232	1.078
313.15 K, 101 kPa, x1 = 0.256	1.067
313.15 K, 101 kPa, x1 = 0.487	0.973
313.15 K, 101 kPa, x1 = 0.541	0.911
313.15 K, 101 kPa, x1 = 0.625	0.815
313.15 K, 101 kPa, x1 = 0.642	0.807
313.15 K, 101 kPa, x1 = 0.903	0.545
313.15 K, 101.3 kPa, x2 = 0.0969	0.544
313.15 K, 101.3 kPa, x2 = 0.2006	0.643
313.15 K, 101.3 kPa, x2 = 0.3002	0.749
313.15 K, 101.3 kPa, x2 = 0.4001	0.861
313.15 K, 101.3 kPa, x2 = 0.5	0.945
313.15 K, 101.3 kPa, x2 = 0.6	1.022
313.15 K, 101.3 kPa, x2 = 0.7	1.091
313.15 K, 101.3 kPa, x2 = 0.8	1.054
313.15 K, 101.3 kPa, x2 = 0.85	0.995
313.15 K, 101.3 kPa, x2 = 0.9	0.907
313.15 K, 101.3 kPa, x2 = 0.95	0.788
318.15 K, 101 kPa, x1 = 0.125	0.832
318.15 K, 101 kPa, x1 = 0.274	0.952
318.15 K, 101 kPa, x1 = 0.465	0.868
318.15 K, 101 kPa, x1 = 0.702	0.69
318.15 K, 101 kPa, x2 = 0.9413	0.8181
323.15 K, 100 kPa, x1 = 0.2	0.832
323.15 K, 100 kPa, x1 = 0.3	0.86
323.15 K, 100 kPa, x1 = 0.4	0.848
323.15 K, 101 kPa, x1 = 0.055	0.64
323.15 K, 101 kPa, x1 = 0.129	0.785
323.15 K, 101 kPa, x1 = 0.176	0.818
323.15 K, 101 kPa, x1 = 0.232	0.857
323.15 K, 101 kPa, x1 = 0.256	0.849
323.15 K, 101 kPa, x1 = 0.487	0.796
323.15 K, 101 kPa, x1 = 0.541	0.746
323.15 K, 101 kPa, x1 = 0.625	0.678
323.15 K, 101 kPa, x1 = 0.642	0.673
323.15 K, 101 kPa, x1 = 0.903	0.475
323.15 K, 101.3 kPa, x1 = 0.9144	0.458
323.15 K, 101.3 kPa, x2 = 0.0969	0.47
323.15 K, 101.3 kPa, x2 = 0.2006	0.547
323.15 K, 101.3 kPa, x2 = 0.3002	0.628
323.15 K, 101.3 kPa, x2 = 0.4001	0.71
323.15 K, 101.3 kPa, x2 = 0.5	0.774
323.15 K, 101.3 kPa, x2 = 0.6	0.826
323.15 K, 101.3 kPa, x2 = 0.7	0.86
323.15 K, 101.3 kPa, x2 = 0.8	0.84
323.15 K, 101.3 kPa, x2 = 0.85	0.796
323.15 K, 101.3 kPa, x2 = 0.95	0.647
